From US20240408169A1 (priority 2023, published 2024) come the findings set out here.

*1 amine or outer side, *2 acyl side, *3 side chain or, on linkers, in order; H or OH if unused. Where a SMILES comes first, the peptide text is derived from it. Bridges are numbered along the chain shown (N, C = ends). [ ]: non-standard residue; d: D form. The star is where a group is joined. X122 = CN([C@@H](Cc1cc(Cl)ccc1C1=CCN(C(=O)C(C)(C)C)CC1)C(=O)[*:2])[*:1]; X181 = CN([C@@H](Cc1cc(Cl)ccc1C1=CCN(C(=O)C2CC2)CC1)C(=O)[*:2])[*:1]; NMeAla(5-Cl-2-cPrO-3-pyridyl) = CN[C@@H](Cc1cc(Cl)cnc1OC1CC1)C(=O)O; X167 = CN([C@@H](Cc1cc(F)ccc1C1=CCN(S(C)(=O)=O)CC1)C(=O)[*:2])[*:1]; X137 = CN([C@@H](Cc1cc(F)ccc1-c1cnn(S(C)(=O)=O)c1)C(=O)[*:2])[*:1]; X200 = CN([C@@H](Cc1cc(F)ccc1C1CCN(C(=O)C2CC2)CC1)C(=O)[*:2])[*:1]; X153 = CN([C@@H](Cc1cc(F)ccc1-c1cnn(C2CCOCC2)c1)C(=O)[*:2])[*:1]; X178 = CN([C@@H](Cc1cc(F)ccc1-c1cnn(C2CCOC2)c1)C(=O)[*:2])[*:1]; X208 = CN([C@@H](Cc1cc(F)ccc1-c1cnn(CC(F)F)c1)C(=O)[*:2])[*:1]; NMehhhLys(Me) = CN([C@@H](CCCCCCCN(C)[*:3])C(=O)[*:2])[*:1]; NMe(hhhLys) = CN([C@@H](CCCCCCCN[*:3])C(=O)[*:2])[*:1]; Cyclobutanecarbonyl(1-CF3) = O=C(C1(C(F)(F)F)CCC1)*; cBuCO(3,3-F2-1-CF3) = O=C(C1(C(F)(F)F)CC(F)(F)C1)*; Pro(trans-4-F) = O=C(O)[C@@H]1C[C@@H](F)CN1; Gly(cPr) = N[C@H](C(=O)O)C1CC1

In one assay the target is T1, CyclinA2/CDK2 (Homo sapiens, UniProt P20248).
T1 construct: purchased CRELUX Protein Services
The assay can be described thus: Fluorescence Polarization (FP) competitive binding assay, Cyclin A2/Cdk2.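 Further: plates equilibrated two hours at room temperature before polarization reading, IC50 fitted from eight-concentration compound titration curves.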 Conditions: 8 nM Cyclin A2/Cdk2, 2 nM FAM probe; average of 2-3 independent experiments; read-out: Cyclin A FP IC50. (In general: In fluorescence polarisation assays a small probe gives low polarisation when free and higher when bound to something large.)

Another assay has as its target T2, CyclinB1/CDK1 (Homo sapiens, UniProt P14635).
T2 construct: purchased Eurofins, discovery 14-450
Briefly: Fluorescence Polarization (FP) competitive binding assay, Cyclin B1/Cdk1.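 Further: fluorescence polarization read after equilibration at room temperature, with IC50 taken from serially diluted dose-response curves.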 Conditions: 10 nM Cyclin B1/Cdk1, 2 nM FAM probe; average of 2-3 independent experiments; read-out: Cyclin B FP IC50.

The next assay addresses T3, CyclinE1/CDK2 (Homo sapiens, UniProt P24864).
T3 construct: purchased Eurofins, discovery 14-475
Briefly: Fluorescence Polarization (FP) competitive binding assay, Cyclin E1/Cdk2.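 Further: readings taken after two-hour equilibration at room temperature in HEPES buffer with NaCl, DTT, NP-40 and BSA, IC50 fitted from eight-concentration serial dilution series.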 Conditions: 10 nM Cyclin E1/Cdk2, 2 nM FAM probe; average of 2-3 independent experiments; read-out: Cyclin E FP IC50.

The next assay deals with NCI-H1048 cells. Briefly: MTT proliferation assay, NCI-H1048.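 Further: Dose-response in 96-well plates over 8 or 10 concentration points, with exposure spanning 3-4 cell doublings.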 It is filed as cell-based. Conditions: 5 days compound exposure, 1:3 serial dilution starting at 10 μM. For orientation: Formazan colour is commonly taken as a measure of viable cells.
Another assay relates to OVCAR3 cells. Briefly: MTT proliferation assay, OVCAR3.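 Further: compound given as an 8- or 10-point series, one day after plating, with exposure covering roughly 3-4 cell doublings.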 Conditions: 5 days compound exposure, 1:3 serial dilution starting at 10 μM. Type of assay: cell-based.

As to `CC(C)C[C@@H]1NC(=O)[C@@H](N(C)C(=O)[C@@H](NC(=O)[C@@H]2C[C@@H](F)CN2C(=O)C2(C(F)(F)F)CC(F)(F)C2)C2CC2)CC=CCCCCN(C)C(=O)[C@H](Cc2cc(F)ccc2-c2cnn(S(C)(=O)=O)c2)N(C)C1=O` [Example 87], the values for the half-maximal inhibitory concentration (IC50) on CyclinA2/CDK2, at CyclinB1/CDK1 and at CyclinE1/CDK2 were 180 nM, 20 nM and 890 nM, respectively. Further, the GI50 in the assay on NCI-H1048 cells came out at 50 nM; in the assay with OVCAR3 cells it was 60 nM.

For the compound `CC(C)C[C@@H]1NC(=O)[C@@H](N(C)C(=O)[C@@H](NC(=O)[C@@H]2C[C@@H](F)CN2C(=O)C2(C(F)(F)F)CC(F)(F)C2)C2CC2)CC=CCCCCNC(=O)[C@H](Cc2cc(Cl)ccc2C2=CCN(C(=O)C(C)(C)C)CC2)N(C)C1=O` [Example 91], the IC50 at CyclinA2/CDK2 is 100 nM; on CyclinB1/CDK1, 20 nM; on CyclinE1/CDK2, 5730 nM. In addition, the results for the GI50 in the assay on NCI-H1048 cells and with OVCAR3 cells were 230 nM and 260 nM, respectively.

As to `CC(C)C[C@@H]1NC(=O)[C@@H](N(C)C(=O)[C@@H](NC(=O)[C@@H]2C[C@@H](F)CN2C(=O)C2(C(F)(F)F)CCC2)C2CC2)CCCCCCCN(C)C(=O)[C@H](Cc2cc(F)ccc2-c2cnn(CC(F)F)c2)N(C)C1=O` [Example 92] ({Cyclobutanecarbonyl(1-CF3)}-[Pro(trans-4-F)][Gly(cPr)][NMehhhLys(Me)]L[X208]; lactam 3-C), the IC50 on CyclinA2/CDK2 is 20 nM; on CyclinB1/CDK1, 20 nM; at CyclinE1/CDK2 it was 100 nM. For the same compound, the concentration for 50% growth inhibition (GI50) in the assay with NCI-H1048 cells and in the assay on OVCAR3 cells was 10 nM in each case.

Turning to `CC(C)C[C@@H]1NC(=O)[C@@H](N(C)C(=O)[C@@H](NC(=O)[C@@H]2C[C@@H](F)CN2C(=O)C2(C(F)(F)F)CC(F)(F)C2)C2CC2)CCCCCCCN(C)C(=O)[C@H](Cc2cc(F)ccc2-c2cnn(C3CCOCC3)c2)N(C)C1=O` [Example 93] ({cBuCO(3,3-F2-1-CF3)}-[Pro(trans-4-F)][Gly(cPr)][NMehhhLys(Me)]L[X153]; lactam 3-C), the half-maximal inhibitory concentration (IC50) was 20 nM at CyclinA2/CDK2, 20 nM at CyclinB1/CDK1 and 140 nM on CyclinE1/CDK2. For the same compound, the GI50 in the assay with NCI-H1048 cells and in the assay on OVCAR3 cells was 10 nM each time.

`CC(C)C[C@@H]1NC(=O)[C@@H](N(C)C(=O)[C@@H](NC(=O)[C@@H]2C[C@@H](F)CN2C(=O)C2(C(F)(F)F)CC(F)(F)C2)C2CC2)CCCCCCCN(C)C(=O)[C@H](Cc2cc(F)ccc2-c2cnn(C3CCOC3)c2)N(C)C1=O` (stereo partly drawn) [Example 94] ({cBuCO(3,3-F2-1-CF3)}-[Pro(trans-4-F)][Gly(cPr)][NMehhhLys(Me)]L[X178]; lactam 3-C): the concentration for half-maximal inhibition (IC50) at CyclinA2/CDK2 stood at 20 nM; on CyclinB1/CDK1, 20 nM; on CyclinE1/CDK2 it was 180 nM. Moreover, the concentration for 50% growth inhibition (GI50) in the assay with NCI-H1048 cells and in the assay with OVCAR3 cells was 10 nM throughout.

With `CC(C)C[C@@H]1NC(=O)[C@@H](N(C)C(=O)[C@@H](NC(=O)[C@@H]2C[C@@H](F)CN2C(=O)C2(C(F)(F)F)CC(F)(F)C2)C2CC2)CCCCCCCN(C)C(=O)[C@H](Cc2cc(F)ccc2-c2cnn(S(C)(=O)=O)c2)N(C)C1=O` [Example 95] ({cBuCO(3,3-F2-1-CF3)}-[Pro(trans-4-F)][Gly(cPr)][NMehhhLys(Me)]L[X137]; lactam 3-C), the half-maximal inhibitory concentration (IC50) on CyclinA2/CDK2 is 50 nM; on CyclinB1/CDK1 it was 20 nM; on CyclinE1/CDK2, 530 nM. For the same compound, the 50% growth inhibitory concentration (GI50) with NCI-H1048 cells stood at 10 nM; with OVCAR3 cells, 20 nM.

Consider `CC(C)C[C@@H]1NC(=O)[C@@H](N(C)C(=O)[C@@H](NC(=O)[C@@H]2C[C@@H](F)CN2C(=O)C2(C(F)(F)F)CC(F)(F)C2)C2CC2)CCCCCCCNC(=O)[C@H](Cc2cc(Cl)ccc2C2=CCN(C(=O)C3CC3)CC2)N(C)C1=O` [Example 97] ({cBuCO(3,3-F2-1-CF3)}-[Pro(trans-4-F)][Gly(cPr)][NMe(hhhLys)]L[X181]; lactam 3-C), for which the values for the IC50 on CyclinA2/CDK2, at CyclinB1/CDK1 and at CyclinE1/CDK2 were 20 nM, 20 nM and 1450 nM, respectively. In addition, the values for the GI50 in the assay on NCI-H1048 cells and with OVCAR3 cells were 20 nM and 30 nM, respectively.

In the case of `CC(C)C[C@@H]1NC(=O)[C@@H](N(C)C(=O)[C@@H](NC(=O)[C@@H]2C[C@@H](F)CN2C(=O)C2(C(F)(F)F)CC(F)(F)C2)C2CC2)CCCCCCCNC(=O)[C@H](Cc2cc(Cl)ccc2C2=CCN(C(=O)C(C)(C)C)CC2)N(C)C1=O` [Example 99] ({cBuCO(3,3-F2-1-CF3)}-[Pro(trans-4-F)][Gly(cPr)][NMe(hhhLys)]L[X122]; lactam 3-C), the half-inhibitory concentration (IC50) on CyclinA2/CDK2 was determined as 20 nM; on CyclinB1/CDK1 it was 20 nM; at CyclinE1/CDK2, 1540 nM. In addition, the GI50 in the assay on NCI-H1048 cells came to 20 nM; with OVCAR3 cells, 30 nM.

Regarding `CC(C)C[C@@H]1NC(=O)[C@@H](N(C)C(=O)[C@@H](NC(=O)[C@@H]2C[C@@H](F)CN2C(=O)C2(C(F)(F)F)CC(F)(F)C2)C2CC2)CCCCCCCN(C)C(=O)[C@H](Cc2cc(F)ccc2C2=CCN(S(C)(=O)=O)CC2)N(C)C1=O` [Example 100] ({cBuCO(3,3-F2-1-CF3)}-[Pro(trans-4-F)][Gly(cPr)][NMehhhLys(Me)]L[X167]; lactam 3-C), the figures for the 50% inhibitory concentration (IC50) on CyclinA2/CDK2, on CyclinB1/CDK1 and at CyclinE1/CDK2 were 20 nM, 20 nM and 450 nM, respectively. Further, the 50% growth inhibitory concentration (GI50) in the assay on NCI-H1048 cells and in the assay on OVCAR3 cells was 20 nM throughout.

For `CC(C)C[C@@H]1NC(=O)[C@@H](N(C)C(=O)[C@@H](NC(=O)[C@@H]2C[C@@H](F)CN2C(=O)C2(C(F)(F)F)CC(F)(F)C2)C2CC2)CCCCCCCN(C)C(=O)[C@H](Cc2cc(F)ccc2C2CCN(C(=O)C3CC3)CC2)N(C)C1=O` [Example 101] ({cBuCO(3,3-F2-1-CF3)}-[Pro(trans-4-F)][Gly(cPr)][NMehhhLys(Me)]L[X200]; lactam 3-C), the values for the IC50 at CyclinA2/CDK2, at CyclinB1/CDK1 and on CyclinE1/CDK2 were 30 nM, 20 nM and 470 nM, respectively. Also, the GI50 in the assay on NCI-H1048 cells was determined as 20 nM; with OVCAR3 cells it was 30 nM.

Take `CC(C)C[C@@H]1NC(=O)[C@@H](N(C)C(=O)[C@@H](NC(=O)[C@@H]2C[C@@H](F)CN2C(=O)C2(C(F)(F)F)CC(F)(F)C2)C2CC2)CCCCCCCNC(=O)[C@H](Cc2cc(Cl)cnc2OC2CC2)N(C)C1=O` [Example 103] ({cBuCO(3,3-F2-1-CF3)}-[Pro(trans-4-F)][Gly(cPr)][NMe(hhhLys)]L[NMeAla(5-Cl-2-cPrO-3-pyridyl)]; lactam 3-C): the half-maximal inhibitory concentration (IC50) on CyclinA2/CDK2 was 60 nM; on CyclinB1/CDK1, 20 nM; on CyclinE1/CDK2, 350 nM. Also, the GI50 with NCI-H1048 cells stood at 30 nM; in the assay with OVCAR3 cells, 50 nM.

Take `CC(C)C[C@@H]1NC(=O)[C@@H](N(C)C(=O)[C@@H](NC(=O)[C@@H]2C[C@@H](F)CN2C(=O)C2(C(F)(F)F)CC(F)(F)C2)C2CC2)CC=CCCCCN(C)C(=O)[C@H](Cc2cc(Cl)cnc2OC2CC2)N(C)C1=O` [Example 104]: the figures for the IC50 on CyclinA2/CDK2, at CyclinB1/CDK1 and on CyclinE1/CDK2 were 160 nM, 20 nM and 490 nM, respectively. For the same compound, the GI50 was found to be 160 nM with NCI-H1048 cells and 260 nM in the assay with OVCAR3 cells.

For the compound `CC(C)C[C@@H]1NC(=O)[C@@H](N(C)C(=O)[C@@H](NC(=O)[C@@H]2C[C@@H](F)CN2C(=O)C2(C(F)(F)F)CCC2)C2CC2)CCCCCCCNC(=O)[C@H](Cc2cc(Cl)cnc2OC2CC2)N(C)C1=O` [Example 108] ({Cyclobutanecarbonyl(1-CF3)}-[Pro(trans-4-F)][Gly(cPr)][NMe(hhhLys)]L[NMeAla(5-Cl-2-cPrO-3-pyridyl)]; lactam 3-C), the values for the IC50 at CyclinA2/CDK2, on CyclinB1/CDK1 and on CyclinE1/CDK2 were 50 nM, 20 nM and 180 nM, respectively. The concentration for 50% growth inhibition (GI50) in the assay with NCI-H1048 cells turned out to be 20 nM; with OVCAR3 cells, 30 nM.

The term IC50 denotes the concentration that inhibits the measured activity by half. For orientation: GI50 means the concentration that inhibits growth by half.
